# Target: T1, Trx reductase-1 (TrxR1) (Rattus norvegicus, UniProt O89049)
# T1 construct: gene Txnrd1
# T1 sequence (O89049 1-499): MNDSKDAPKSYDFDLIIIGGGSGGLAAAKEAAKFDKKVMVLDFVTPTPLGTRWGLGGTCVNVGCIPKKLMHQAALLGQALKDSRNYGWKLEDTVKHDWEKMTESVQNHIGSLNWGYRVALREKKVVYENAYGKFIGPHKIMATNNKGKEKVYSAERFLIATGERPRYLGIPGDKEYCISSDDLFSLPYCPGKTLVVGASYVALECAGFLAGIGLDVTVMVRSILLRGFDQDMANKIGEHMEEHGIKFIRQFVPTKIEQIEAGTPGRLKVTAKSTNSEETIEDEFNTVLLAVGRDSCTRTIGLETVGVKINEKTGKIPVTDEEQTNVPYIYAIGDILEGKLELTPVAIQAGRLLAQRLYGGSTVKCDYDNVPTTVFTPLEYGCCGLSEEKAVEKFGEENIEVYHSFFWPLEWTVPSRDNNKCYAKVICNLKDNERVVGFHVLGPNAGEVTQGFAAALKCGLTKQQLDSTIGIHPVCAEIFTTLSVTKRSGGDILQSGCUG
# Assay: DTNB reduction assay with purified TrxR1, […] h pre-incubation with NADPH at pH […]
row,Compound,IC50 [µM]
1,"CNC(=O)N(NS(C)(=O)=O)S(C)(=O)=O [101MDCE, 1,2-bis(methylsulfonyl)-1-[(methylamino)carbonyl]hydrazine]",9.9 ± 3.1
2,"O=NN(CCCl)C(=O)NCCCl [BCNU, 1,3-bis(2-chloroethyl)-1-nitrosourea]",5.4 ± 1.4
3,"CNC(=O)N(N(CCCl)S(C)(=O)=O)S(C)(=O)=O [Laromustine, 1,2-bis(methylsulfonyl)-1-(2-chloroethyl)-2-[(methylamino)carbonyl]hydrazine]",5 ± 1.1
